This is an account of results in patent publication US20120020989A1, “METHODS OF TREATING COLORECTAL CANCER” (KYOWA HAKKO KIRIN CO., LTD., priority 2010, published 2012).

Data set [1] relates to LS174T. Description: SCID mouse LS174T intraperitoneal xenograft model, surviving period. The class given is in vivo. The settings on record: LS174T i.p., CPT-11 10 mg/kg; for surviving period median (median survival time: MST): N26 antibody 5 mg/kg, 5-FU 50 mg/kg, caudal vein once a week x4, adjuvant group 24 days; for prolongation of surviving period in comparison with the adjuvant alone group: log-rank test, N26 5 mg/kg, 5-FU 50 mg/kg once a week x4. Here is the method:
(1) SCID mouse and colorectal cancer cell line
SCID mice (C.B-17/Icr-scid, female, 6-weeks old) were purchased from CLEA Japan Inc. and reared in an SPF (specific pathogen free) equipment.
A colorectal cancer-derived cell line LS174T (purchased from ATCC) was used as the tumor cell and cultured using RPMI 1640 medium (manufactured by GIBCO, Invitrogen) containing 10% FBS (manufactured by HyClone) and 1% penicillin-streptomycin (manufactured by GIBCO, Invitrogen).
A xenograft model was prepared by intraperitoneally transplanting the cultured LS174T cell into the SCID mouse at a dose of 1×10^7 cells/200 μl/head.
An anti-A33 human antibody (KRN330) (hereinafter referred to as N26 antibody) comprising the heavy chain variable region represented by SEQ ID NO:23 and the light chain variable region represented by SEQ ID NO:25 was used as an anti-A33 human antibody.
5-FU (5FU Injection 250 Kyowa) was obtained from Kyowa Hakko Kirin Co., Ltd. and CPT-11 (Campto (registered trademark) Injection or Irinotecan Hydrochloride Injection) was obtained from YAKULT HONSHA CO., LTD. In the control group, a dilution medium of the anti-A33 human antibody (10 mM of sodium L-glutamate, 262 mM of D-sorbitol and 0.05 mg/ml of polysorbate 80, pH 5.5) was used.
Administration schedules of agents are shown in FIG. (A)(a) and FIG. 1(B)(a), respectively. After transplanting the cultured LS174 cell into the abdominal cavity of SCID mice on day 0, their body weights were measured on the next day of the transplantation (on day 1) to divide them into six groups in such a manner that the average body weight of each group became equal (A, B, E and F groups=seven animals per group, C and D groups=six animals per group).
The grouping day was regarded as the initial administration day, and thereafter, 5 mg/kg of an anti-A33 human antibody, 10 mg/kg of CPT-11 (irinotecan) or 50 mg/kg of 5-FU was administered into the mouse caudal vein at a dose of 10 ml/kg, four times (on day 1, day 8, day 15 and day 22) at a frequency of once a week, and the surviving period was monitored. On the same day of the drug administration, an adjuvant was intravenously administered to the control group.
Survival curve of each administration group was plotted by the Kaplan-Meier method and the survival curves of each group were compared using log-rank test, with the results shown in FIG. 1(A)(b) and FIG. 1(A)(c) and FIG. 1(B)(b) and FIG. 1(B)(c). In this connection, though the results of FIG. 1(A)(b) and FIG. 1(A)(c) and FIG. 1(B)(b), and FIG. 1(B)(c) are separately shown, these were carried out in the same test, and results of the control group and the N26 antibody (5 mg/kg) group in FIG. 1(A)(b) and FIG. 1(A)(c) are identical to those in FIG. 1(B)(b) and FIG. 1(B)(c).

Data set [2] relates to LS174T. The experiment in a line: Nude rat LS174T subcutaneous xenograft model, tumor volume.
Protocol: Nude rat (F344/NJcl-rnu/rnu, female, 8 weeks old) was purchased from CLEA Japan Inc. and reared in an SPF equipment.
Oxaliplatin (ELPLAT (registered trademark) For Injection or Oxaliplatin For Injection) was obtained from YAKULT HONSHA CO., LTD., and Avastin (registered trademark) (bevacizumab) was obtained from Genentech Inc.
Administration schedule of each agent was carried out in the following manner. When the size of tumor became from 30 m^3 to 50 m^3 after subcutaneously grafting with LS174T cell to the nude rat, grouping was carried out so as to be five animals per group in such a manner that the tumor volume of each group became uniform (on day 0).
The adjuvant was intravenously administered to the control group in the same manner. The tumor volume of each individual was measured at a frequency of once or twice a week.

Consider `CCc1c2c(nc3ccc(OC(=O)N4CCC(N5CCCCC5)CC4)cc13)-c1cc3c(c(=O)n1C2)COC(=O)[C@]3(O)CC` [CPT-11, irinotecan], for which, in the data set with LS174T [1], the “surviving period median (median survival time: MST)” value was determined as 41 days and the “prolongation of surviving period in comparison with the adjuvant alone group” value is given as “significant prolongation of surviving period”.

Turning to `O=C1[O][Pt]2([NH][C@@H]3CCCC[C@H]3[NH]2)[O]C1=O` [oxaliplatin], in the data set on LS174T [2] (nude rat LS174T s.c., N26 5 mg/kg, oxaliplatin 15 mg/kg, i.v. day 0, 7, 14, 21), the “antitumor effect (tumor volume), FIG. 2(b)” value was “slight antitumor effect”. In the data set on LS174T [2] (nude rat, oxaliplatin 15 mg/kg administration group), the body weight loss entry is listed as “significant body weight loss”.

On to `O=c1[nH]cc(F)c(=O)[nH]1` [5-FU, 5-fluorouracil], for which, in the data set with LS174T [1], the “surviving period median (median survival time: MST)” value was found to be 24 days and the “prolongation of surviving period in comparison with the adjuvant alone group” value was “prolongation of surviving period was not found”. The “antitumor effect (tumor volume), FIG. 2(a)” value in the data set on LS174T [2] (nude rat LS174T s.c., N26 5 mg/kg, 5-FU 100 mg/kg, i.v. day 0, 7, 14, 21) is reported as “significant antitumor effect”.
